Measurements published in US8173808B2, “Substituted naphthalenyl-pyrimidine compounds” (ArQule, Inc., priority 2009, dated 2012).

How the values were obtained:
DLD-1 = test: MTS assay, DLD-1; type: cell-based; conditions: Homo sapiens, 72 hours, 1 Percent FBS
Protocol: (§1) Cells were maintained at 37° C., 5% CO2 in DMEM media supplemented with 1% fetal bovine serum, penicillin/streptomycin and fungizone (Invitrogen). Cells were seeded into 96-well tissue culture plates at 3000 per well and cultured at 37° C. for 18 hours. Test compounds were dissolved and diluted to 300× in DMSO then diluted 1:40 in DMEM. Cells were incubated with test compounds for 72 hours followed by incubation with tetrazolium compound (3-(4,5-dimethylthiazol-2-yl)-5-(3-carboxymethoxyphenyl)-2-(4-sulfophenyl)-2H-tetrazolium, inner salt; MTS) and the electron coupling reagent, phenazine methosulfate (PMS) for 4 hours. […] The ability of compounds to inhibit cell growth in this assay is correlated with the reduction of dehydrogenase enzyme activity found in metabolically active cells. The measurement of the absorbance of the formazan was assessed using a Victor (Perkin Elmer) microplate reader at 492 nm. The calculated IC50 value is the concentration of the test compound that causes a 50% decrease in the absorbance.

MDA-MB-231 = test: MTS assay, MDA-MB-231; type: cell-based; conditions: Homo sapiens, 72 hours, 1 Percent FBS
Protocol: as §1

| Structure (SMILES) | inhibition at 10 µM (DLD-1) [%] | inhibition at 10 µM (MDA-MB-231) [%] |
| --- | --- | --- |
| COc1ccc2cc(-c3ccnc(NCCc4cccnc4)n3)cc(NC(=O)OC(C)(C)C)c2c1 [Compound 98, tert-butyl (7-methoxy-3-{2-[(2-pyridin-3-ylethyl)amino]pyrimidin-4-yl}-1-naphthyl)carbamate] | 98 | 86 |
| COc1cccc(CNc2nccc(-c3cc(NC(=O)OC(C)(C)C)c4cc(OC)ccc4c3)n2)c1 [Compound 99, tert-butyl (7-methoxy-3-{2-[(3-methoxybenzyl)amino]pyrimidin-4-yl}-1-naphthyl)carbamate] | 97 | 98 |
| COCCNc1nccc(-c2cc(NC(=O)OC(C)(C)C)c3cc(OC)ccc3c2)n1 [Compound 100, tert-butyl (7-methoxy-3-{2-[(2-methoxyethyl)amino]pyrimidin-4-yl}-1-naphthyl)carbamate] | 70 | 31 |
| COc1ccc2cc(-c3ccnc(NC4CCN(Cc5ccccc5)CC4)n3)cc(NC(=O)OC(C)(C)C)c2c1 [Compound 101, tert-butyl (3-{2-[(1-benzylpiperidin-4-yl)amino]pyrimidin-4-yl}-7-methoxy-1-naphthyl)carbamate] | 96 | 98 |
| COc1ccc2cc(-c3ccnc(NC4CC(C)(C)N(C)C(C)(C)C4)n3)cc(NC(=O)OC(C)(C)C)c2c1 [Compound 103, tert-butyl (7-methoxy-3-{2-[(1,2,2,6,6-pentamethylpiperidin-4-yl)amino]pyrimidin-4-yl}-1-naphthyl)carbamate] | 74 | 89 |
| COc1ccc(CNc2nccc(-c3cc(NC(=O)OC(C)(C)C)c4cc(OC)ccc4c3)n2)cc1 [Compound 104, tert-butyl (7-methoxy-3-{2-[(4-methoxybenzyl)amino]pyrimidin-4-yl}-1-naphthyl)carbamate] | 48 | 30 |
| COc1ccc2cc(-c3ccnc(NCC(C)(C)CN(C)C)n3)cc(NC(=O)OC(C)(C)C)c2c1 [Compound 105, tert-butyl [3-(2-{[3-(dimethylamino)-2,2-dimethylpropyl]amino}pyrimidin-4-yl)-7-methoxy-1-naphthyl]carbamate] | 84 | 89 |
| COc1ccc2cc(-c3ccnc(NC4CCN(C)CC4)n3)cc(N3CCNCC3)c2c1 [Compound 116, 4-(6-methoxy-4-piperazin-1-yl-2-naphthyl)-N-(1-methylpiperidin-4-yl)pyrimidin-2-amine] | 97 | 97 |
| COc1ccc2cc(-c3ccnc(NC4CCN(Cc5ccccc5)CC4)n3)cc(N3CCNCC3)c2c1 [Compound 117, N-(1-benzylpiperidin-4-yl)-4-(6-methoxy-4-piperazin-1-yl-2-naphthyl)pyrimidin-2-amine] | 97 | 97 |
| COc1ccc2cc(-c3ccnc(NC4CC(C)(C)N(C)C(C)(C)C4)n3)cc(N3CCNCC3)c2c1 [Compound 118, 4-(6-methoxy-4-piperazin-1-yl-2-naphthyl)-N-(l,2,2,6,6-pentamethylpiperidin-4-yl)pyrimidin-2-amine] | 96 | 96 |
| COCCNc1nccc(-c2cc(N3CCNCC3)c3cc(OC)ccc3c2)n1 [Compound 119, N-(2-methoxyethyl)-4-(6-methoxy-4-piperazin-1-yl-2-naphthyl)pyrimidin-2-amine] | 94 | 93 |
| COc1ccc2cc(-c3ccnc(NCc4ccccn4)n3)cc(N3CCNCC3)c2c1 [Compound 120, 4-(6-methoxy-4-piperazin-1-yl-2-naphthyl)-N-(pyridin-2-ylmethyl)pyrimidin-2-amine] | 83 | 78 |
| COc1ccc2cc(-c3ccnc(NCc4ccc(OC)c(OC)c4)n3)cc(N3CCNCC3)c2c1 [Compound 121, N-(3,4-dimethoxybenzyl)-4-(6-methoxy-4-piperazin-1-yl-2-naphthyl)pyrimidin-2-amine] | 97 | 99 |
| COc1ccc2cc(-c3ccnc(NCCc4cccnc4)n3)cc(N3CCNCC3)c2c1 [Compound 122, 4-(6-methoxy-4-piperazin-1-yl-2-naphthyl)-N-(2-pyridin-3-ylethyl)pyrimidin-2-amine] | 94 | 95 |
| COc1ccc2cc(-c3ccnc(NCCc4ccccn4)n3)cc(N3CCNCC3)c2c1 [Compound 123, 4-(6-methoxy-4-piperazin-1-yl-2-naphthyl)-N-(2-pyridin-2-ylethyl)pyrimidin-2-amine] | 97 | 98 |
| COc1ccc2cc(-c3ccnc(NCCc4ccccc4OC)n3)cc(N3CCNCC3)c2c1 [Compound 124, N-[2-(2-methoxyphenyl)ethyl]-4-(6-methoxy-4-piperazin-1-yl-2-naphthyl)pyrimidin-2-amine] | 97 | 98 |

| Structure (SMILES) | inhibition at 10 µM (DLD-1) [%] | inhibition at 10 µM (MDA-MB-231) [%] |
| --- | --- | --- |
| COc1ccc2cc(-c3ccnc(NCCN(C)C)n3)cc(N3CCNCC3)c2c1 [Compound 125, N′-[4-(6-methoxy-4-piperazin-1-yl-2-naphthyl)pyrimidin-2-yl]-N,N-dimethylethane-1,2-diamine] | 96 | 96 |
| COc1ccc2cc(-c3ccnc(NCc4cccc(C(F)(F)F)c4)n3)cc(N3CCNCC3)c2c1 [Compound 127, 4-(6-methoxy-4-piperazin-1-yl-2-naphthyl)-N-[3-(trifluoromethyl)benzyl] pyrimidin-2-amine] | 97 | 99 |
| COc1ccc2cc(-c3ccnc(NCc4ccccc4C)n3)cc(N3CCNCC3)c2c1 [Compound 128, 4-(6-methoxy-4-piperazin-1-yl-2-naphthyl)-N-(2-methylbenzyl)pyrimidin-2-amine] | 97 | 98 |
| COc1ccc2cc(-c3ccnc(NCCc4cccc(OC)c4OC)n3)cc(N3CCNCC3)c2c1 [Compound 129, N-[2-(2,3-dimethoxyphenyl)ethyl]-4-(6-methoxy-4-piperazin-1-yl-2-naphthyl)pyrimidin-2-amine] | 97 | 99 |
| COc1ccc2cc(-c3ccnc(NCc4cccnc4)n3)cc(N3CCNCC3)c2c1 [Compound 130, 4-(6-methoxy-4-piperazin-1-yl-2-naphthyl)-N-(pyridin-3-ylmethyl)pyrimidin-2-amine] | 97 | 76 |
| CCN1CCCC(Nc2nccc(-c3cc(N4CCNCC4)c4cc(OC)ccc4c3)n2)C1 (centres unmarked) [Compound 131, N-(1-ethylpiperidin-3-yl)-4-(6-methoxy-4-piperazin-1-yl-2-naphthyl)pyrimidin-2-amine] | 92 | 97 |
| COc1cc(CCNc2nccc(-c3cc(N4CCNCC4)c4cc(OC)ccc4c3)n2)cc(OC)c1 [Compound 132, N-[2-(3,5-dimethoxyphenyl)ethyl]-4-(6-methoxy-4-piperazin-1-yl-2-naphthyl)pyrimidin-2-amine] | 97 | 98 |
| COc1ccc2cc(-c3ccnc(NCCN4CCCC4)n3)cc(N3CCNCC3)c2c1 [Compound 133, 4-(6-methoxy-4-piperazin-1-yl-2-naphthyl)-N-(2-pyrrolidin-1-ylethyl)pyrimidin-2-amine] | 97 | 98 |
| COc1ccc(CCNc2nccc(-c3cc(N4CCNCC4)c4cc(OC)ccc4c3)n2)cc1 [Compound 134, N-[2-(4-methoxyphenyl)ethyl]-4-(6-methoxy-4-piperazin-1-yl-2-naphthyl)pyrimidin-2-amine] | 97 | 98 |
| COc1ccc2cc(-c3ccnc(NCC(C)(C)CN(C)C)n3)cc(N3CCNCC3)c2c1 [Compound 136, N′-[4-(6-methoxy-4-piperazin-1-yl-2-naphthyl)pyrimidin-2-yl]-N,N,2,2-tetramethylpropane-1,3-diamine] | 97 | 95 |
| CNc1nccc(-c2cc(NC3CCN(c4ccc5ccccc5n4)CC3)c3cc(OC)ccc3c2)n1 [Compound 154, 4-{6-methoxy-4-[(1-quinolin-2-ylpiperidin-4-yl)amino]-2-naphthyl}-N-methylpyrimidin-2-amine] | 82 | 41 |
| CNc1nccc(-c2cc(NC3CCN(c4ncnc5nc[nH]c45)CC3)c3cc(OC)ccc3c2)n1 [Compound 157, 4-(6-methoxy-4-{[1-(9H-purin-6-yl)piperidin-4-yl]amino}-2-naphthyl)-N-methylpyrimidin-2-amine] | 46 | 75 |
| CNc1nccc(-c2cc(NC3CCN(c4cc(C(=N)N)cc(Cl)n4)CC3)c3cc(OC)ccc3c2)n1 [Compound 158, 2-chloro-6-[4-({7-methoxy-3-[2-(methylamino)pyrimidin-4-yl]-1-naphthyl}amino)piperidin-1-yl]pyridine-4-carboximidamide] | 98 | 98 |
| CNc1nccc(-c2cc(NC3CCN(c4cc(Cl)ncn4)CC3)c3cc(OC)ccc3c2)n1 [Compound 159, 4-(4-{[1-(6-chloropyrimidin-4-yl)piperidin-4-yl]amino}-6-methoxy-2-naphthyl)-N-methylpyrimidin-2-amine] | 93 | 42 |
| CNc1nccc(-c2cc(NC3CCN(c4nc(C)cc(C(=O)OC)n4)CC3)c3cc(OC)ccc3c2)n1 [Compound 163, methyl 2-[4-({7-methoxy-3-[2-(methylamino)pyrimidin-4-yl]-1-naphthyl}amino)piperidin-1-yl]-6-methylpyrimidine-4-carboxylate] | 97 | 98 |
